From ChEMBL document CHEMBL1201862, “PubChem BioAssay data set” (2004)
The source made the active and inactive calls. For most assays here, no stated cut-off is given here; in the data, actives have a measured EC50 and inactives only a lower limit.

Assays:
[1] = NIH-3T3 fibroblast cytotoxicity, dose response, cytotoxicity control, cell-based, fluorescence, Alamar Blue, secondary assay (AID 2327); assay type: functional;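 further: NIH-3T3 mouse fibroblasts cultured with fluconazole at 8 µg/mL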
[2] = fluconazole-exposed Candida albicans growth modulators – fluorescence, retest, confirmation (AID 2467); assay type: functional, cell-based
[3] = target: T1, Serine/threonine-protein phosphatase (Candida dubliniensis (strain CD36 / CBS 7987 / NCPF 3949 / NRRLY-17841) (Yeast), UniProt B9W6M3); test: blockers of CaCl2-induced CDRE-lacZ signaling – S. cerevisiae, luminescence, secondary, dose response (AID 2388); assay type: functional, cell-based;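 further: yeast reporter cells carrying a calcineurin-responsive lacZ construct stimulated with calcium chloride; luminescent beta-galactosidase reporter signal in whole cells rather than isolated phosphatase activity; potency for inhibition where a drop in reporter signal means calcineurin blockade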
T1 sequence (B9W6M3 whole entry): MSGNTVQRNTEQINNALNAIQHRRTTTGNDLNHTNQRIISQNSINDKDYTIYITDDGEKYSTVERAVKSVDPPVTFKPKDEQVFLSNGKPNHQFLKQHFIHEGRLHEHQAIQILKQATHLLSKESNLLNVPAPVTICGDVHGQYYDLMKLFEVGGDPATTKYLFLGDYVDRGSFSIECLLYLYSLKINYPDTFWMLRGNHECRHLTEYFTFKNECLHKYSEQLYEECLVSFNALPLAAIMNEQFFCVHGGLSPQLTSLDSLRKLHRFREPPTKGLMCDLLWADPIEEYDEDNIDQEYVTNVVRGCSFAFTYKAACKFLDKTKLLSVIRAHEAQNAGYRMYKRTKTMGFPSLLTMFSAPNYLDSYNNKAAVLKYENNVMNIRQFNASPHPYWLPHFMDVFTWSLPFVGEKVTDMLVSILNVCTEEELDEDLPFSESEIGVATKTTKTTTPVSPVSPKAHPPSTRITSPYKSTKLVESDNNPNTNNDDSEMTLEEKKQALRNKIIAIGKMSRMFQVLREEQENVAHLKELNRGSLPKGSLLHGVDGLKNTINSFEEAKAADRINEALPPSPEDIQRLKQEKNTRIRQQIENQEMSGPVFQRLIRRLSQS

Vero = test: viability of Vero cells under compound – cytotoxicity control for flavivirus capping enzyme inhibitors (AID 588742); assay type: functional; settings: Chlorocebus sabaeus
Genome polyprotein = Genome polyprotein (dengue virus type 2, UniProt P29990); test: flavivirus cap methylation enzyme inhibition – biochemical, confirmation dose response, primary screen (AID 588689); assay type: functional
[4] = target: ATP-dependent molecular chaperone HSP82 (Candida albicans (strain WO-1) (Yeast), UniProt C4YTQ8); test: steroid-induced GRE reporter decrease in yeast – S. cerevisiae, luminescence, Hsp90 inhibitor project, dose response (AID 2400); assay type: functional, cell-based;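 further: beta-galactosidase luminescence from glucocorticoid response element reporter as proxy for Hsp90 function; inhibitor potency where signal loss means Hsp90 inhibition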
[5] = viability loss in THP-1 monocytes – THP-1 cells, cytotoxicity control for Vif-APOBEC3G degradation inhibitor project, dose response (AID 1117359); assay type: functional; settings: THP-1
[6] = target: T2, Apoptotic protease-activating factor 1 (Homo sapiens, UniProt O14727); assay type: functional
T2 sequence (O14727 whole entry): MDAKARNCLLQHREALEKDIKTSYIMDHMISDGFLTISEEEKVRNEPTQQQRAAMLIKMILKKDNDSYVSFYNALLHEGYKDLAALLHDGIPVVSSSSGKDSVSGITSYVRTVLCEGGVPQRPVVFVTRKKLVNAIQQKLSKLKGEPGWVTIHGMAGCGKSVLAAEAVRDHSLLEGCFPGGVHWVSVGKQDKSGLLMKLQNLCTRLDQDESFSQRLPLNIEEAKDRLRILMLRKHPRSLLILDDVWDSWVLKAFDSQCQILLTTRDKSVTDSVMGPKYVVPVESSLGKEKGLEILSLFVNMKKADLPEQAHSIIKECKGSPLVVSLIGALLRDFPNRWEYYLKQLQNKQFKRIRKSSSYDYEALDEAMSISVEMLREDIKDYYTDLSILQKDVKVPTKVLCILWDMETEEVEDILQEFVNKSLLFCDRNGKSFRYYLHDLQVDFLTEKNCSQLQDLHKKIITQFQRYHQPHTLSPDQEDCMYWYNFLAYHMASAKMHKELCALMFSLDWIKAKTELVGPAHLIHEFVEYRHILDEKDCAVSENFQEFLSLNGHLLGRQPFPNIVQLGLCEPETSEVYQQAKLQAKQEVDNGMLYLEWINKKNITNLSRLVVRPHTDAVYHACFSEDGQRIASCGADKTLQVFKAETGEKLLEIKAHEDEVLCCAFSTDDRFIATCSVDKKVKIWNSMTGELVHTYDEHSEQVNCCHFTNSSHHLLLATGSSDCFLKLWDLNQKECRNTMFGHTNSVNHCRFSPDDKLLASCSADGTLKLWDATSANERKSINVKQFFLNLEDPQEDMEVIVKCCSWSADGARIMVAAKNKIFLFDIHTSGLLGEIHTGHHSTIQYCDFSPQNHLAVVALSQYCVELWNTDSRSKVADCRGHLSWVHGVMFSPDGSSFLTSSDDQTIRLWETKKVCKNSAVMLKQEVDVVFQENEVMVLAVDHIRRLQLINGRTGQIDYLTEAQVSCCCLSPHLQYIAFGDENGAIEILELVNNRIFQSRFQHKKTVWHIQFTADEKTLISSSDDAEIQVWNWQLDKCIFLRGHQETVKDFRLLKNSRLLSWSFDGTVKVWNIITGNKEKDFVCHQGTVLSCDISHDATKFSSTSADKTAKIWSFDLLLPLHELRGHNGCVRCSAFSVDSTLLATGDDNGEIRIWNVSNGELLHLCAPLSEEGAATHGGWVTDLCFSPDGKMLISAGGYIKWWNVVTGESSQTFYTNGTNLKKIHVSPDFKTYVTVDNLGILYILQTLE

BJ [7] = test: BJ-TERT fibroblast viability loss – cell-based, RAS-independent, luminescence, dose response (AID 1933); assay type: functional; settings: Homo sapiens
BJ [8] = test: cells; assay type: functional, cell-based; settings: Homo sapiens
BJ [9] = test: BJ-TERT-LT-ST fibroblast viability loss – cell-based, RAS-independent, luminescence, dose response (AID 1935); assay type: functional; settings: Homo sapiens;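 further: BJ fibroblasts immortalized with TERT plus LT and ST oncogenes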
[10] = DRD fibroblast viability loss – cell-based, non-viral oncogenic, luminescence, dose response (AID 1934); assay type: functional; settings: Homo sapiens
BJ [11] = test: growth inhibition of engineered Ras-driven BJ cells – cell-based, alamar blue fluorescence, cherrypicked samples, dose response (AID 2631); assay type: functional; settings: Homo sapiens;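 further: confirmatory dose-response assay in RAS-dependent BJ fibroblasts engineered with TERT, LT and ST, with cytotoxicity read by fluorescence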
[12] = target: T3, Replicative DNA helicase DnaB (Mycobacterium tuberculosis, UniProt P9WMR3); test: DnaB intein splicing inhibitors, dose response, biochemical, cell-free fluorescence (AID 449749); assay type: functional
T3 sequence (P9WMR3 whole entry): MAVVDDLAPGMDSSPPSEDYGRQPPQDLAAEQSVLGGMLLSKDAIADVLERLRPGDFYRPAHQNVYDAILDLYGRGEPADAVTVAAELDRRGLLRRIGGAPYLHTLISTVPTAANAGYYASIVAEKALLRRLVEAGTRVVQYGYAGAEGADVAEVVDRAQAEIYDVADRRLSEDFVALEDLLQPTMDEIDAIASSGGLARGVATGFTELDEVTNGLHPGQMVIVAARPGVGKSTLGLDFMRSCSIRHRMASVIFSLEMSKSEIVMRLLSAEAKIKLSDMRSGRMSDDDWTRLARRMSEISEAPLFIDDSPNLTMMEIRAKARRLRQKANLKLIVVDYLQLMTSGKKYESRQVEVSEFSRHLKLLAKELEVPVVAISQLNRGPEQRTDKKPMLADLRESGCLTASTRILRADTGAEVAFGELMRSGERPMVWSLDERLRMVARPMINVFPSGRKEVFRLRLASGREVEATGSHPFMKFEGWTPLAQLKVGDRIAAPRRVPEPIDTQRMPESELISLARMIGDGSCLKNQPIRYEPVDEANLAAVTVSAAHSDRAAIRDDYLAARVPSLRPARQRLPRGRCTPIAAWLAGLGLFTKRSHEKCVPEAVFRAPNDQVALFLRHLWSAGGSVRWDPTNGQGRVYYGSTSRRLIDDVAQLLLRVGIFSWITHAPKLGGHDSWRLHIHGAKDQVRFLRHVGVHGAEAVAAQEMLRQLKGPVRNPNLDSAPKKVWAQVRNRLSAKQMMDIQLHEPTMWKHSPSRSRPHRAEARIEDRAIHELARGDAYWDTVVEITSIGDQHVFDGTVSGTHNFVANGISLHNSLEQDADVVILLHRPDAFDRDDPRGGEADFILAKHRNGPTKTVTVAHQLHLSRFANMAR

Protein RecA = target: T4, Protein RecA (Mycobacterium tuberculosis, UniProt P9WHJ3); test: Fluorescence Cell-Free Homogeneous Dose Retest to Identify Inhibitors of RecA-Intein Splicing Activity. [Related pubchem assays (depositor defined):AID2097, AID2223, AID489010, AID492950]; assay type: functional
T4 sequence (P9WHJ3 whole entry): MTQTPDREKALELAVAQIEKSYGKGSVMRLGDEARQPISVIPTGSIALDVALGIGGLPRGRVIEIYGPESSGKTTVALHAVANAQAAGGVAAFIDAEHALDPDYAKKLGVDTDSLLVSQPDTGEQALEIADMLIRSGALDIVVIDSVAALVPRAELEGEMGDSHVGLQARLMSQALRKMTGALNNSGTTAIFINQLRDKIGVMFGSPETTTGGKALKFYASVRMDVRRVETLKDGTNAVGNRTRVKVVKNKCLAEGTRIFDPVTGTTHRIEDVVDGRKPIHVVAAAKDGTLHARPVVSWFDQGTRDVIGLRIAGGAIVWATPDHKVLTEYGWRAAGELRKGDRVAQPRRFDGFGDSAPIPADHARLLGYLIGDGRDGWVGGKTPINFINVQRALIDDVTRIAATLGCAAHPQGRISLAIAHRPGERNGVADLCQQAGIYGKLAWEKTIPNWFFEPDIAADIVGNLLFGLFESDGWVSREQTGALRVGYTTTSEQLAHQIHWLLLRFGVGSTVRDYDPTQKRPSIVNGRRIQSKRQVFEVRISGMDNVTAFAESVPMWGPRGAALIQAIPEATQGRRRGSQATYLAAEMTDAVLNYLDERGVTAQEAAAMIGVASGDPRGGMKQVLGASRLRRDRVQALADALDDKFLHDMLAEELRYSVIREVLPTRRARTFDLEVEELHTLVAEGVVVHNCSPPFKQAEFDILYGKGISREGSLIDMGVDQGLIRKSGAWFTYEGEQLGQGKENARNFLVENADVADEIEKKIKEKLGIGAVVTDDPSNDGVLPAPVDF

Caspase-6 = target: T5, Caspase-6 (Homo sapiens, UniProt P55212); test: inhibition of CASP6 peptide cleavage – biochemical, VEID-R110 fluorescence, cherry-pick, dose response (AID 720632)
T5 sequence (P55212 whole entry): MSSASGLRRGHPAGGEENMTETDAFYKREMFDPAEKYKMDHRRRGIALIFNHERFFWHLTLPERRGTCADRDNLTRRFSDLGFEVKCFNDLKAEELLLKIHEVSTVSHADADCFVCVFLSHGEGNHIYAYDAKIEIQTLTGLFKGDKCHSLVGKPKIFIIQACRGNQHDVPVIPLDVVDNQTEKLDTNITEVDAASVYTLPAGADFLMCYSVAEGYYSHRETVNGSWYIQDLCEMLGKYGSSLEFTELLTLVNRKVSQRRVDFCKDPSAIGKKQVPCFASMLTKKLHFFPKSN

[13] = target: T6, Tyrosyl-DNA phosphodiesterase 2 (Homo sapiens, UniProt O95551); test: potency against TDP2 phosphodiesterase activity – biochemical, epi absorbance, IC50, dose response (AID 743297)
T6 sequence (O95551 whole entry): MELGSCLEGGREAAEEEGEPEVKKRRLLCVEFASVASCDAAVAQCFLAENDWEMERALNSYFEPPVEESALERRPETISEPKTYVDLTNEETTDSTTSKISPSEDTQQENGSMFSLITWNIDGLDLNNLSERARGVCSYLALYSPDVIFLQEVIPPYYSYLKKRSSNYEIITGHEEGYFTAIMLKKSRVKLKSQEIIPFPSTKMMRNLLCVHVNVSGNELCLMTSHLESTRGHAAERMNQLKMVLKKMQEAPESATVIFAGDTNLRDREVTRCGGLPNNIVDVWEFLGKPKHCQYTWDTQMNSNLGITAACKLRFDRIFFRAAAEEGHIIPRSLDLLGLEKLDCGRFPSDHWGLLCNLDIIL

Chain of ATP-dependent molecular chaperone HSP82 (C4YTQ8 whole entry): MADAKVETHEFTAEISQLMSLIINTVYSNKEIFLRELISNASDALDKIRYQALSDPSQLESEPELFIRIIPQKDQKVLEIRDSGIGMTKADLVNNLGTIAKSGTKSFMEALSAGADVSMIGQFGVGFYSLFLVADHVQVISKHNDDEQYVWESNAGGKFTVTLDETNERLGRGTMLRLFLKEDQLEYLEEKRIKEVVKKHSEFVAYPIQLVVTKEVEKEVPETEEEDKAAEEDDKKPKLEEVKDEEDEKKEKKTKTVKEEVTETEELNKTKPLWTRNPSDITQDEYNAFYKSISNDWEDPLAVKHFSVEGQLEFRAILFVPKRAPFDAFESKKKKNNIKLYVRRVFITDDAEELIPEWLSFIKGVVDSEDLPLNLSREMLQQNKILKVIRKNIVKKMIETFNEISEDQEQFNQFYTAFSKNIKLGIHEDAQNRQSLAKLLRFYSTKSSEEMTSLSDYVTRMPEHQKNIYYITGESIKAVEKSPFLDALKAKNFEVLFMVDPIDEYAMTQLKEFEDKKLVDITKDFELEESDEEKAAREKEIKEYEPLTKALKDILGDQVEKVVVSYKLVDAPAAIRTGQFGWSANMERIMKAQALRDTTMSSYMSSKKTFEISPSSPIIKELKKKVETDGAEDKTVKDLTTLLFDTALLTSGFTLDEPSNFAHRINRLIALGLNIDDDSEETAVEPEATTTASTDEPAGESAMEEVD
Chain of Genome polyprotein (P29990 2492-3391 limits assumed): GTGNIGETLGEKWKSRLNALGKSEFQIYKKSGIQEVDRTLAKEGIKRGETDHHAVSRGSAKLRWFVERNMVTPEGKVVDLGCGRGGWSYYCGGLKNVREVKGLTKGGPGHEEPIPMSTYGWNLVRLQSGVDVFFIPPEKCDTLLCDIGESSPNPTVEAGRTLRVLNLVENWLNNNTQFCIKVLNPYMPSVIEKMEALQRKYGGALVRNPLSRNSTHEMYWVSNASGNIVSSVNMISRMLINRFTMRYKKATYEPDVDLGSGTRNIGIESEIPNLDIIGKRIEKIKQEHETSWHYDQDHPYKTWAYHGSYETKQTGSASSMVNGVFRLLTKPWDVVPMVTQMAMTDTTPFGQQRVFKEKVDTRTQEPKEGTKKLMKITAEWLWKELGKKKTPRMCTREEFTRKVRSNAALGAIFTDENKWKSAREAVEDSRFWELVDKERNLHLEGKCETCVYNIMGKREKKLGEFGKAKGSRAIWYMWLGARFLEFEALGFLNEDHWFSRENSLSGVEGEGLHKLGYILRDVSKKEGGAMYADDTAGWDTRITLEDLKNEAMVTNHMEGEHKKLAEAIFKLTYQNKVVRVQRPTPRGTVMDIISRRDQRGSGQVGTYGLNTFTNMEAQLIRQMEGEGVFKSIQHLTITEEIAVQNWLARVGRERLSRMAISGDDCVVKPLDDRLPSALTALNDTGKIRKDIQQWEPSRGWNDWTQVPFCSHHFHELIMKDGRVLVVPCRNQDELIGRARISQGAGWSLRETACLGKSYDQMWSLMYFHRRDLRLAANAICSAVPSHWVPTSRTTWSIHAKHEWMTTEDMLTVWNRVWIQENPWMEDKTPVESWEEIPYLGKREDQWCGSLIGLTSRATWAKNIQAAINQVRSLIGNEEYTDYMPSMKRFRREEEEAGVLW

O=C(/C(=N/N=C/c1ccc(O)c(O)c1O)c1ccccc1)c1ccccc1
EC50 [1]: > 150 µM (inactive)
EC50 [2]: 4.04 µM (active)
EC50 [3]: > 180 µM (inactive)
CC50 (Vero): 9.15 µM (active)
IC50 (Genome polyprotein): 50.1 µM (active)
EC50 [4]: 5.97 µM (active)
CC50 [5]: 16.6 µM (active)

Cc1nn2c(-c3ccncc3)nnc2c2ccccc12
IC50 [6]: 5.15 µM (active)

Cc1cccc(OCC(=O)Nc2ccc(C(=O)NCc3cccnc3)cc2)c1
EC50 (BJ [7]): > 150 µM (not active)
EC50 (BJ [8]): 8.97 µM (inconclusive)
EC50 (BJ [9]): > 150 µM (inconclusive)
EC50 [10]: > 150 µM (not active)
EC50 (BJ [11]): 17.3 µM (active)

COc1ccc(NC2=C(NCCO)C(=O)c3ccccc3C2=O)cc1
AC50 [12]: 31.4 µM (active)
IC50 [6]: 29.4 µM (active)
EC50 (Protein RecA): 21.9 µM (active)
AC50 (Caspase-6): 6.05 µM (active)
IC50 [13]: 88.7 µM (inactive)

CC(C)(C)c1ccc(Cc2nnc(S)nc2O)cc1
EC50 [1]: > 160 µM (inactive)
EC50 [2]: 0.368 µM (active)
EC50 [3]: 20.2 µM (active)
EC50 [4]: 9.48 µM (active)

CC1=C(CC[C@@H](C)CO)O[C@H]2C[C@H]3[C@@H]4CC[C@H]5C[C@@H](O)CC[C@]5(C)[C@H]4CC(=O)[C@]3(C)[C@@H]12
EC50 [1]: > 150 µM (inactive)
EC50 [2]: 0.383 µM (active)
EC50 [3]: > 180 µM (inactive)
EC50 [4]: > 150 µM (inactive)
